Reference: article PMC12028158, “Synthesis and In Vitro Evaluation of the Anticancer Effect of Novel Phosphonium Vindoline Derivatives” (International Journal of Molecular Sciences, 2025)
Read-outs that look alike come from different tables or passages of the source.

Experiments:
Format in all cases: cell-based
[1] = tested on: HL-60(TB); experiment: NCI60 five-dose screen; conditions: Homo sapiens
[2] = tested on: SR; experiment: NCI60 five-dose screen; conditions: Homo sapiens
[3] = tested on: HOP-92; experiment: NCI60 five-dose screen; conditions: Homo sapiens
[4] = tested on: NCI-H23; experiment: NCI60 five-dose screen; conditions: Homo sapiens
[5] = tested on: NCI-H322M; experiment: NCI60 five-dose screen; conditions: Homo sapiens
[6] = tested on: COLO 205; experiment: NCI60 five-dose screen; conditions: Homo sapiens
[7] = tested on: KM12; experiment: NCI60 five-dose screen; conditions: Homo sapiens
[8] = tested on: SF-268; experiment: NCI60 five-dose screen; conditions: Homo sapiens
[9] = tested on: SF-539; experiment: NCI60 five-dose screen; conditions: Homo sapiens
[10] = tested on: MALME-3M; experiment: NCI60 five-dose screen; conditions: Homo sapiens
[11] = tested on: NCI/ADR-RES; experiment: NCI60 five-dose screen; conditions: Homo sapiens
[12] = tested on: DU-145; experiment: NCI60 five-dose screen; conditions: Homo sapiens
[13] = tested on: HS 578T; experiment: NCI60 five-dose screen; conditions: Homo sapiens
[14] = tested on: Breast Cancer panel; experiment: NCI60 five-dose screen, panel mean; conditions: Homo sapiens, read-out: GI50 Mean
[15] = tested on: 60 human tumor cell lines (NCI60); experiment: NCI60 five-dose screen, overall mean
[16] = tested on: K-562; experiment: NCI60 one-dose screen; conditions: Homo sapiens
[17] = tested on: RPMI-8226; experiment: NCI60 one-dose screen; conditions: Homo sapiens
[18] = tested on: A549/ATCC; experiment: NCI60 one-dose screen; conditions: Homo sapiens
[19] = tested on: NCI-H322M; experiment: NCI60 one-dose screen; conditions: Homo sapiens, read-out: Growth percent
[20] = tested on: NCI-H460; experiment: NCI60 one-dose screen; conditions: Homo sapiens
[21] = tested on: HCT-116; experiment: NCI60 one-dose screen; conditions: Homo sapiens
[22] = tested on: SNB-19; experiment: NCI60 one-dose screen; conditions: Homo sapiens
[23] = tested on: SNB-75; experiment: NCI60 one-dose screen; conditions: Homo sapiens
[24] = tested on: MALME-3M; experiment: NCI60 one-dose screen; conditions: Homo sapiens, read-out: Growth percent
[25] = tested on: SK-MEL-28; experiment: NCI60 one-dose screen; conditions: Homo sapiens
[26] = tested on: SK-MEL-5; experiment: NCI60 one-dose screen; conditions: Homo sapiens
[27] = tested on: OVCAR-3; experiment: NCI60 one-dose screen; conditions: Homo sapiens
[28] = tested on: OVCAR-4; experiment: NCI60 one-dose screen; conditions: Homo sapiens
[29] = tested on: OVCAR-5; experiment: NCI60 one-dose screen; conditions: Homo sapiens
[30] = tested on: SK-OV-3; experiment: NCI60 one-dose screen; conditions: Homo sapiens
[31] = tested on: ACHN; experiment: NCI60 one-dose screen; conditions: Homo sapiens, read-out: Growth percent
[32] = tested on: SN12C; experiment: NCI60 one-dose screen; conditions: Homo sapiens, read-out: Growth percent
[33] = tested on: 60 human tumor cell lines (NCI60); experiment: NCI60 one-dose screen, overall mean; conditions: Homo sapiens, read-out: Mean growth percent
[34] = tested on: SNB-75; experiment: NCI60 five-dose screen; conditions: Homo sapiens, SNB-75
[35] = tested on: SK-MEL-2; experiment: NCI60 five-dose screen; conditions: Homo sapiens, SK-MEL-2
[36] = tested on: UO-31; experiment: NCI60 five-dose screen; conditions: Homo sapiens, UO-31
[37] = tested on: MDA-MB231ATCC; experiment: NCI60 five-dose screen; conditions: Homo sapiens, MDA-MB-231
[38] = read-out: GI50 Mean, mean over all 60 human cancer cell lines
[39] = RPMI-8226, read-out: Growth percent
[40] = NCI-H460, read-out: Growth percent
[41] = HCT-116, read-out: Growth percent
[42] = SNB-19, read-out: Growth percent
[43] = SNB-75, read-out: Growth percent
[44] = SK-MEL-28, read-out: Growth percent
[45] = SK-MEL-5, read-out: Growth percent
[46] = OVCAR-3, read-out: Growth percent
[47] = OVCAR-4, read-out: Growth percent
[48] = OVCAR-5, read-out: Growth percent
[49] = SK-OV-3, read-out: Growth percent

SMILES: CC[C@]12C=CCN3CC[C@@]4(c5ccc(OC)cc5N(C)[C@H]4[C@@](O)(C(=O)OC)[C@@H]1OC(=O)CCCC[P+](c1ccc(F)cc1)(c1ccc(F)cc1)c1ccc(F)cc1)[C@@H]32 [10c]
- GI50 ([1]; HL-60, HL-60(TB), Leukemia, read-out: GI50): 2.11 µM
- GI50 ([2]; Leukemia, read-out: GI50): 14.5 µM
- GI50 ([3]; HOP-92, Non-small Cell Lung Cancer, read-out: GI50): 6.32 µM
- GI50 ([4]; NCI-H23, Non-small Cell Lung Cancer, read-out: GI50): 20.1 µM
- GI50 ([5]; Non-small Cell Lung Cancer, read-out: GI50): 50 µM
- GI50 ([6]; COLO 205, COLO 205, Colon Cancer, read-out: GI50): 4.63 µM
- GI50 ([7]; KM12, KM12, Colon Cancer, read-out: GI50): 13.4 µM
- GI50 ([8]; SF-268, CNS Cancer, read-out: GI50): 17.6 µM
- GI50 ([9]; SF-539, CNS Cancer, read-out: GI50): 21.9 µM
- GI50 ([10]; MALME-3M, Melanoma, read-out: GI50): 13.5 µM
- GI50 ([11]; Ovarian Cancer, read-out: GI50): > 100 µM
- GI50 ([12]; DU-145, Prostate Cancer, read-out: GI50): 35.4 µM
- GI50 ([13]; HS 578T, Breast Cancer, read-out: GI50): 16.9 µM
- GI50 ([14]; mean over Breast Cancer panel): 11.1 µM
- GI50 ([15]; mean over all 60 human cancer cell lines, read-out: GI50 Mean): 24.9 µM
- activity at 10 µM ([16]; K562, K-562, 10 μM, one-dose, read-out: Growth percent): 17.1%
- activity at 10 µM ([17]; RPMI-8226, 10 μM, one-dose, read-out: Growth percent): 4.14%
- activity at 10 µM ([18]; A549/ATCC, 10 μM, one-dose, read-out: Growth percent): 37.5%
- activity at 10 µM ([19]; 10 μM, one-dose): 52.9%
- activity at 10 µM ([20]; NCI-H460, 10 μM, one-dose, read-out: Growth percent): 20.3%
- activity at 10 µM ([21]; HCT-116, 10 μM, one-dose, read-out: Growth percent): 23.4%
- activity at 10 µM ([22]; SNB-19, 10 μM, one-dose, read-out: Growth percent): 6.61%
- activity at 10 µM ([23]; SNB-75, 10 μM, one-dose, read-out: Growth percent): -5.3%
- activity at 10 µM ([24]; MALME-3M, 10 μM, one-dose): -55.9%
- activity at 10 µM ([25]; SK-MEL-28, 10 μM, one-dose, read-out: Growth percent): -54.9%
- activity at 10 µM ([26]; SK-MEL-5, 10 μM, one-dose, read-out: Growth percent): -59.6%
- activity at 10 µM ([27]; OVCAR-3, 10 μM, one-dose, read-out: Growth percent): 12.6%
- activity at 10 µM ([28]; OVCAR-4, 10 μM, one-dose, read-out: Growth percent): 33.1%
- activity at 10 µM ([29]; OVCAR-5, 10 μM, one-dose, read-out: Growth percent): 49.7%
- activity at 10 µM ([30]; SK-OV-3, 10 μM, one-dose, read-out: Growth percent): 41.4%
- activity at 10 µM ([31]; 10 μM, one-dose): 103%
- activity at 10 µM ([32]; 10 μM, one-dose): 10.6%
- activity at 10 µM ([33]; mean over 60 cell lines, 10 μM, one-dose): 17%

SMILES: CC[C@]12C=CCN3CC[C@@]4(c5ccc(OC)cc5N(C)[C@H]4[C@@](O)(C(=O)OC)[C@@H]1OC(=O)CCCC[P+](C1CCCCC1)(C1CCCCC1)C1CCCCC1)[C@@H]32 [10d]
- GI50 ([1]; HL-60): 0.293 µM
- GI50 [2]: 1.39 µM
- GI50 ([3]; HOP-92): 1.02 µM
- GI50 ([4]; NCI-H23): 2.34 µM
- GI50 [5]: 5.3 µM
- GI50 ([6]; COLO 205): 0.377 µM
- GI50 ([7]; KM12): 1.72 µM
- GI50 ([8]; SF-268): 3.17 µM
- GI50 ([9]; SF-539): 2.85 µM
- GI50 ([10]; Malme-3M): 1.63 µM
- GI50 [11]: 65.5 µM
- GI50 ([12]; DU-145): 3.65 µM
- GI50 ([13]; Hs-578T): 2.61 µM
- GI50 [14]: 1.48 µM
- GI50 [15, 38]: 4.29 µM
- activity at 10 µM ([16]; K562, read-out: Growth percent): 7.48%
- activity at 10 µM [17, 39]: -45%
- activity at 10 µM ([18]; A549, read-out: Growth percent): 11.7%
- activity at 10 µM [19]: 16.1%
- activity at 10 µM [20, 40]: 5.27%
- activity at 10 µM [21, 41]: 4.69%
- activity at 10 µM [22, 42]: -71.1%
- activity at 10 µM [23, 43]: -81.4%
- activity at 10 µM ([24]; Malme-3M): -95.9%
- activity at 10 µM [25, 44]: -86.5%
- activity at 10 µM [26, 45]: -96.2%
- activity at 10 µM [27, 46]: -60.3%
- activity at 10 µM [28, 47]: 12.4%
- activity at 10 µM [29, 48]: 5.84%
- activity at 10 µM [30, 49]: -22.2%
- activity at 10 µM [31]: 18.7%
- activity at 10 µM [32]: -57.9%
- activity at 10 µM ([33]; 60 cell): -36.6%

SMILES: CC[C@]12C=CCN3CC[C@@]4(c5ccc(OC)cc5N(C)[C@H]4[C@@](O)(C(=O)OC)[C@@H]1OC(=O)CCCC[P+](c1ccccc1)(c1ccccc1)c1ccccc1)[C@@H]32 [compound 4, reference compound]
- GI50 ([3]; HOP-92): 0.268 µM
- GI50 ([4]; NCI-H23): 1.22 µM
- GI50 [5]: 3 µM
- GI50 ([6]; COLO 205): 0.242 µM
- GI50 ([7]; KM12): 0.442 µM
- GI50 ([8]; SF-268): 0.634 µM
- GI50 ([9]; SF-539): 1.3 µM
- GI50 [34]: 0.221 µM
- GI50 ([10]; Malme-3M): 0.273 µM
- GI50 [35]: 0.279 µM
- GI50 [11]: > 100 µM
- GI50 [36]: 12.2 µM
- GI50 ([12]; DU-145): 0.763 µM
- GI50 [37]: 0.37 µM
- GI50 ([13]; Hs-578T): 1.23 µM
- GI50 [14]: 0.5 µM
- GI50 [15, 38]: 3.52 µM
- activity at 10 µM ([16]; K562, read-out: Growth percent): 21.7%
- activity at 10 µM [17, 39]: 15.4%
- activity at 10 µM ([18]; A549, read-out: Growth percent): 22.1%
- activity at 10 µM [19]: 47%
- activity at 10 µM [20, 40]: 18.4%
- activity at 10 µM [21, 41]: 8.03%
- activity at 10 µM [22, 42]: 12.7%
- activity at 10 µM [23, 43]: -12.8%
- activity at 10 µM ([24]; Malme-3M): -35.8%
- activity at 10 µM [25, 44]: 12.5%
- activity at 10 µM [26, 45]: -72.9%
- activity at 10 µM [27, 46]: -0.29%
- activity at 10 µM [28, 47]: 5.22%
- activity at 10 µM [29, 48]: 23.8%
- activity at 10 µM [30, 49]: -2.96%
- activity at 10 µM [31]: 93%
- activity at 10 µM [32]: 4.56%
- activity at 10 µM ([33]; 60 cell): 11.9%
